Values of other authors in US20050228335A1, “Physical, structural, mechanical, electrical and electromechanical features for use in association with electrically assisted delivery devices and systems” (priority 2004, published 2005).

Details: iontophoresis in vitro across human skin

| SMILES | Cumulative delivery compared with lidocaine |
| --- | --- |
| CCCN(CC)C(CC)C(=O)Nc1c(C)cccc1C (centres unmarked) [etidocaine] | slightly greater delivery |
| CCN(CC)CCOC(=O)c1ccc(N)cc1 [procaine] | slightly greater delivery |
